From patent publication US6809091B1, “Substances capable of inducing apoptosis” (Takara Bio Inc., priority 1998, dated 2004)

Legend:
[1] = tested on: human promyelocytic leukemia HL-60; experiment: MTT method: cell growth suppressing / apoptosis-inducing activity; type: cell-based; settings: for apoptosis-inducing activity / cancer cell growth suppressing activity: HL-60, MTT method of Example 1, 48 hours; for cancer cell growth suppressing activity and apoptic body formation: HL-60, MTT method of Example 4-(2), sample in 50% ethanol, 16 hours
Method: Heated and non-heated substances of each of them were sterilized by a membrane filter of 0.22 μm to prepare samples for the apoptosis-inducing activity. Those samples were diluted with aseptic distilled water to an extent of 2-, 4-, 8-, 16- and 32-fold, their activity for suppressing the cell growth to the human promyelocytic leukemia HL-60 was measured as follows and their intensity or the apoptosis-inducing activity was compared.
Thus, 10 μl of each of the diluted solutions or 10 μl of aseptic distilled water were placed in a well of a 96-well microtiter plate. Then 90 μl of an RPMI 1640 medium (manufactured by Nissui) containing 10% of fetal bovine serum (manufactured by Gibco) which contained 5000 HL-60 cells (ATCC CCL240) were added thereto and an incubation was carried out at 37° C. for 48 hours in the presence of 5% carbon dioxide gas. After observing the shape of the cells under an optical microscope, 10 μl of a phosphate-buffered aqueous saline solution containing 5 mg/ml of 3-(4,5-dimethylthiazol-2-yl)-2,5-diphenyltetrazolium bromide (MTT; manufactured by Sigma), an incubation was continued for four hours more and state of growth of cells and formation of formazan produced in the cells were observed under a microscope. Further, 100 μl of 2-propanol containing 0.04N HCl were added thereto followed by well stirring and the absorbance at 590 nm was measured and used as a degree of growth of cells (an MTT method).
The solvent of the fraction was appropriately evaporated to substitute with a 50% aqueous solution of ethanol and the activity for suppressing the growth of cancer cells was measured by an MTT method mentioned in Example 1 except that the sample was diluted to a two-fold series using a 50% aqueous solution of ethanol and 2 μl of each of the diluted solutions or 2 μl of a 50% aqueous solution of ethanol were placed in a well of a flat-bottom 96-well microplate. Time for incubation was 16 hours.

[2] = tested on: U937 cells; experiment: cell growth of U937 cells, Premix WST-1; type: cell-based, human
Method: (1) U937 cells (ATCC CRL-1593) which were […] established from pleural effusion of patients suffering from […] were suspended in an RPMI 1640 medium containing 10% of FBS to make its concentration 5×10^5 cells/ml and each 100 μl of the suspension was placed in each well of a 96-well microtiter plate. […] The mixture was incubated at 37° C. in the presence of carbon dioxide gas and, after 24, 48 and 72 hours, 10 μl of Premix WST-1 (MK 400; manufactured by Takara Shuzo) were added. The mixture was made to react at 37° C. for three hours and the value (A450-650) obtained by subtracting the absorbance at 650 nm (A650) from that at 450 nm (A450) was defined as a degree of cell growth.

[3] = tested on: hIGF-1 production in Hs68 cells; experiment: induction of hIGF-1 production, ELISA; type: cell-based, human; settings: for time at which the inducing activity of the hIGF production became maximum: 100 μM or more
Method: Hs 68 cells (ATCC CRL-1635) which were human […] were incubated on a D-MEM medium (manufactured by Gibco BRL) containing 10% of fetal bovine serum (FBS manufactured by BioWhittaker) at 37° C. in the presence of 5% of CO2 until the cells were saturated in the culture medium, a trypsin-EDTA solution (manufactured by BioWhittaker) was suspended in the above medium to make 3×10^5 cells/ml and each 200 μl of the suspension were placed in each well of a 96-well microtiter plate. After five days from the incubation, the medium was discarded at the stage where the cells were almost saturated in the culture medium and a medium containing 5, 10, 20, 40, 100 or 200 μM of 4,5-dihydroxy-2-pentenal or 4-hydroxy-2-cyclopenten-1-one was added thereto. A time course of 96 hours was adopted and, every 24 hours, the supernatant liquid of the incubated medium was recovered and the influence of 4,5-dihydroxy-2-pentenal and 4-hydroxy-2-cyclopenten-1-one on the induction of hIGF-1 production in Hs68 cells was measured using an ELISA-kit for hIGF-1 (manufactured by Diagnostic System Labo).

[4] = tested on: hepatoblastoma HepG2 cells; experiment: cell growth of HepG2 cells, Premix WST-1; type: cell-based, human
Method: HepG2 cells (ACTT HB-8065) which were the cell strains established from the patients suffering from primary hepatoblastoma were suspended in a DMEM medium (manufactured by Gibco) containing 10% of FBS (manufactured by BioWhittaker) to an extent of 3.8×10^3 cells/ml, each 200 μl of the suspension were placed in each well of a 96-well microtiter plate and incubated at 37° C. in the presence of 5% carbon dioxide gas until the cells saturated in an incubator, the medium was exchanged, then 4-hydroxy-2-cyclopenten-1-one or […], the mixture was incubated for 24, 48 or 72 hours, 10 μl of Premix WST-1 (MK 400; manufactured by Takara Shuzo) were added thereto, the mixture was made to react at 37° C. for three hours and the value (A450-650) obtained by subtracting the absorbance at 650 nm (A650) from that at 450 nm (A450) was defined as a degree of cell growth.

[5] = tested on: human FGF-β; experiment: cytokine production in DSEK cells, ELISA; type: cell-based; settings: DSEK cell incubation, supernatant every 24 hours
Method: Now, in the DSEK cell incubation, 150 μl/well of the supernatant liquid of the medium were recovered every 24 hours and influence of 4-hydroxy-2-cyclopenten-1-one or 4,5-dihydroxy-2-pentenal on the production of cytokines (human TGF-β, human FGF-β, human IL-1α and human IL-10) was measured using an ELISA-kit specific to each of the cytokine (the kit manufactured by INTERGEN or human FGF-β and human IL-10; and the kit manufactured by Promega for human IL-1α and human TGF-β).

O=CC=CC(O)CO (single isomer, unassigned) [4,5-dihydroxy-2-pentenal, trans-4,5-dihydroxy-2-pentenal]
apoptosis-inducing activity / cancer cell growth suppressing activity [1]: strong | apoptosis-inducing activity / cancer cell growth suppressing activity ([1]; listed as fraction 4): strong activity | cancer cell growth suppressing activity and apoptic body formation [1]: strong activity | Degree of Cell Growth ([2]; 50 μM, 24 hours): 0.821 A450-650 | Degree of Cell Growth ([2]; 50 μM, 48 hours): 1.471 A450-650 | Degree of Cell Growth ([2]; 50 μM, 72 hours): 1.245 A450-650 | Degree of Cell Growth ([2]; 75 μM, 24 hours): 0.606 A450-650 | Degree of Cell Growth ([2]; 75 μM, 48 hours): 0.879 A450-650 | Degree of Cell Growth ([2]; 75 μM, 72 hours): 0.862 A450-650 | Degree of Cell Growth ([2]; 100 μM, 24 hours): 0.560 A450-650 | Degree of Cell Growth ([2]; 100 μM, 48 hours): 0.948 A450-650 | Degree of Cell Growth ([2]; 100 μM, 72 hours): 0.597 A450-650 | Degree of Cell Growth ([2]; 150 μM, 24 hours): 0.505 A450-650 | Degree of Cell Growth ([2]; 150 μM, 48 hours): 0.823 A450-650 | Degree of Cell Growth ([2]; 150 μM, 72 hours): 0.465 A450-650 | Degree of Cell Growth ([2]; 200 μM, 24 hours): 0.370 A450-650 | Degree of Cell Growth ([2]; 200 μM, 48 hours): 0.644 A450-650 | Degree of Cell Growth ([2]; 200 μM, 72 hours): 0.753 A450-650 | Inducing Activity of the hIGF-1 Production ([3]; 40 μM, 24 hours): 0 ng/mL | Inducing Activity of the hIGF-1 Production ([3]; 40 μM, 48 hours): 0 ng/mL | Inducing Activity of the hIGF-1 Production ([3]; 40 μM, 72 hours): 0 ng/mL | Inducing Activity of the hIGF-1 Production ([3]; 40 μM, 96 hours): 0 ng/mL | time at which the inducing activity of the hIGF production became maximum [3]: 24 h | Inducing Activity of the hIGF-1 Production ([3]; 100 μM, 24 hours): 15.3 ng/mL | Inducing Activity of the hIGF-1 Production ([3]; 100 μM, 48 hours): 10.0 ng/mL | Inducing Activity of the hIGF-1 Production ([3]; 100 μM, 72 hours): 5.2 ng/mL | Inducing Activity of the hIGF-1 Production ([3]; 100 μM, 96 hours): 4.6 ng/mL | Inducing Activity of the hIGF-1 Production ([3]; 200 μM, 24 hours): 11.3 ng/mL | Inducing Activity of the hIGF-1 Production ([3]; 200 μM, 48 hours): 11.1 ng/mL | Inducing Activity of the hIGF-1 Production ([3]; 200 μM, 72 hours): 9.9 ng/mL | Inducing Activity of the hIGF-1 Production ([3]; 200 μM, 96 hours): 4.5 ng/mL | Degree of Cell Growth ([4]; 25 μM, 24 hours): 3.39 A450-650 | Degree of Cell Growth ([4]; 25 μM, 48 hours): 2.69 A450-650 | Degree of Cell Growth ([4]; 25 μM, 72 hours): 1.70 A450-650 | Degree of Cell Growth ([4]; 50 μM, 24 hours): 1.97 A450-650 | Degree of Cell Growth ([4]; 50 μM, 48 hours): 2.96 A450-650 | Degree of Cell Growth ([4]; 50 μM, 72 hours): 1.70 A450-650 | Degree of Cell Growth ([4]; 100 μM, 24 hours): 1.81 A450-650 | Degree of Cell Growth ([4]; 100 μM, 48 hours): 2.70 A450-650 | Degree of Cell Growth ([4]; 100 μM, 72 hours): 0.89 A450-650 | Degree of Cell Growth ([4]; 150 μM, 24 hours): 1.40 A450-650 | Degree of Cell Growth ([4]; 150 μM, 48 hours): 0.79 A450-650 | Degree of Cell Growth ([4]; 150 μM, 72 hours): 0.35 A450-650

O=C/C=C/C1COC(/C=C/C(O)CO)O1 (stereo not drawn) [2-(trans-3,4-dihydroxy-1-butenyl)-4-(trans-2-formylvinyl)-1,3-dioxolane]
cancer cell growth suppressing activity and apoptic body formation [1]: noted

Nc1nc2c(ncn2C2C=CC(=O)C2)c(=O)[nH]1 (centres unmarked) [4-(9-guaninyl)-2-cyclopenten-1-one]
concentration of dried product showing deformation and apoptic body formation in the cells ([1]; HL-60, MTT assay): about 13 μg/ml | production of human FGF-β [5]: inhibited

O=C1C=CC(O)C1 (centres unmarked) [4-hydroxy-2-cyclopenten-1-one]
cancer cell growth suppressing activity and apoptic body formation [1]: strong activity | Degree of Cell Growth ([2]; 50 μM, 24 hours): 0.501 A450-650 | Degree of Cell Growth ([2]; 50 μM, 48 hours): 0.930 A450-650 | Degree of Cell Growth ([2]; 50 μM, 72 hours): 0.875 A450-650 | Degree of Cell Growth ([2]; 75 μM, 24 hours): 0.557 A450-650 | Degree of Cell Growth ([2]; 75 μM, 48 hours): 0.968 A450-650 | Degree of Cell Growth ([2]; 75 μM, 72 hours): 0.821 A450-650 | Degree of Cell Growth ([2]; 100 μM, 24 hours): 0.591 A450-650 | Degree of Cell Growth ([2]; 100 μM, 48 hours): 1.054 A450-650 | Degree of Cell Growth ([2]; 100 μM, 72 hours): 0.532 A450-650 | Degree of Cell Growth ([2]; 150 μM, 24 hours): 0.524 A450-650 | Degree of Cell Growth ([2]; 150 μM, 48 hours): 1.126 A450-650 | Degree of Cell Growth ([2]; 150 μM, 72 hours): 0.478 A450-650 | Degree of Cell Growth ([2]; 200 μM, 24 hours): 0.353 A450-650 | Degree of Cell Growth ([2]; 200 μM, 48 hours): 0.643 A450-650 | Degree of Cell Growth ([2]; 200 μM, 72 hours): 0.338 A450-650 | production of human FGF-β [5]: inhibited | hIGF-1 inducing activity [3]: stronger than that of 4,5-dihydroxy-2-pentenal | Inducing Activity of the hIGF-1 Production ([3]; 40 μM, 24 hours): 0 ng/mL | Inducing Activity of the hIGF-1 Production ([3]; 40 μM, 48 hours): 0 ng/mL | Inducing Activity of the hIGF-1 Production ([3]; 40 μM, 72 hours): 0 ng/mL | Inducing Activity of the hIGF-1 Production ([3]; 40 μM, 96 hours): 0 ng/mL | time at which the inducing activity of the hIGF production became maximum [3]: 24 h | Inducing Activity of the hIGF-1 Production ([3]; 100 μM, 24 hours): 39.9 ng/mL | Inducing Activity of the hIGF-1 Production ([3]; 100 μM, 48 hours): 10.0 ng/mL | Inducing Activity of the hIGF-1 Production ([3]; 100 μM, 72 hours): 9.6 ng/mL | Inducing Activity of the hIGF-1 Production ([3]; 100 μM, 96 hours): 4.4 ng/mL | Inducing Activity of the hIGF-1 Production ([3]; 200 μM, 24 hours): 37.9 ng/mL | Inducing Activity of the hIGF-1 Production ([3]; 200 μM, 48 hours): 10.4 ng/mL | Inducing Activity of the hIGF-1 Production ([3]; 200 μM, 72 hours): 9.9 ng/mL | Inducing Activity of the hIGF-1 Production ([3]; 200 μM, 96 hours): 4.2 ng/mL | Degree of Cell Growth ([4]; 25 μM, 24 hours): 1.30 A450-650 | Degree of Cell Growth ([4]; 25 μM, 48 hours): 0.70 A450-650 | Degree of Cell Growth ([4]; 25 μM, 72 hours): 0.49 A450-650 | Degree of Cell Growth ([4]; 50 μM, 24 hours): 1.38 A450-650 | Degree of Cell Growth ([4]; 50 μM, 48 hours): 0.81 A450-650 | Degree of Cell Growth ([4]; 50 μM, 72 hours): 0.47 A450-650 | Degree of Cell Growth ([4]; 100 μM, 24 hours): 1.31 A450-650 | Degree of Cell Growth ([4]; 100 μM, 48 hours): 0.56 A450-650 | Degree of Cell Growth ([4]; 100 μM, 72 hours): 0.35 A450-650 | Degree of Cell Growth ([4]; 150 μM, 24 hours): 1.23 A450-650 | Degree of Cell Growth ([4]; 150 μM, 48 hours): 0.43 A450-650 | Degree of Cell Growth ([4]; 150 μM, 72 hours): 0.30 A450-650
